These are literature values, as cited in publication PMC11034360 (RSC Advances, 2024).

One may read the IC50 as the concentration at which inhibition is half-maximal.

For the series, the system named is H460, MDA-MB 468, MDA-MB-231 and glioblastoma (BT-33). The settings on record: comparison drug for Au(III) complexes; ref 45c.

Regarding `N.N.[Cl][Pt][Cl]` [cisplatin], the half-maximal inhibitory concentration (IC50) is 4.16 µM.
